Reference: patent US12012383B2, “Compositions and methods for inhibiting dihydroorotate dehydrogenase” (Clear Creek Bio, Inc., priority 2018, dated 2024)
Like-named read-outs stand apart in the source and are kept apart here.

Tests used:
solid malignancies = details: 43 patients; patient with papillary carcinoma of the thyroid (Schwartsmann); cited from earlier work
mouse model of AML = details: daily administration of high doses; cited from earlier work
DHODH [1] = target: DHODH (Mus musculus, UniProt O35435); assay: Plasma DHO in mice after brequinar 50 mg/kg (FIG. 6); details: at about 84 hours, FIG. 6 dashed line
DHODH (Mus musculus, UniProt O35435), sequence (O35435 whole entry): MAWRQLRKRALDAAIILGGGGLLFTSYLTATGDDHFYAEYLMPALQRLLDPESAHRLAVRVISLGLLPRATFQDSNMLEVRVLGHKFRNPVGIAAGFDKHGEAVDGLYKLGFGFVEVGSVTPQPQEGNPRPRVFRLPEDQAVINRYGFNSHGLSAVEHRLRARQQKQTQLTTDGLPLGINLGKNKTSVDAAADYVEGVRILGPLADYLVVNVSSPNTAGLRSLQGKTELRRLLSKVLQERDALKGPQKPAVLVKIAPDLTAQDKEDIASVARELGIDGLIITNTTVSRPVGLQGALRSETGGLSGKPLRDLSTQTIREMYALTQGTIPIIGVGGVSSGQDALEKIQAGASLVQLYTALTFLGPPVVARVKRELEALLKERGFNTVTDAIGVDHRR

advanced malignancies = details: cited from earlier work
DHODH [2] = target: DHODH (Homo sapiens, UniProt Q02127); details: for DHO plasma level threshold achieved: after a dose
DHODH (Homo sapiens, UniProt Q02127), sequence (Q02127 whole entry): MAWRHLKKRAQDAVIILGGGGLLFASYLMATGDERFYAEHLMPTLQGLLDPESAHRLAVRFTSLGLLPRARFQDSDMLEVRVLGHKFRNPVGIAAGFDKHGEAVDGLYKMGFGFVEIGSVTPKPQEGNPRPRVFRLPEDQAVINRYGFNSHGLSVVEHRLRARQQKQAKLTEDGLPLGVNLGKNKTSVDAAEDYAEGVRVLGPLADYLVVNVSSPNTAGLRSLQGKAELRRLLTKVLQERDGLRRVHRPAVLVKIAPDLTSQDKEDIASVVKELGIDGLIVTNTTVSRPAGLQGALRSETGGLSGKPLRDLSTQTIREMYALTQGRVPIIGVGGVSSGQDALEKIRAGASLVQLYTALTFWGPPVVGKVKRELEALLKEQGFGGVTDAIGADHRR

[3] = Adverse events in subjects receiving brequinar intravenously once a week (Example 2); type: in vivo, human; details: 209 subjects, i.v. once a week, median dose 1200 mg/m^2
[4] = test system: acute myeloid leukemia (AML); assay: Clinical response of patients with AML to brequinar-containing composition (Examples 9-11); type: in vivo, human
[5] = Example 9, first patient with AML, threshold 1,600 ng/mL
[6] = Example 10, second patient with AML, threshold 2,900 ng/mL
[7] = Example 11, patient with AML, threshold 133 ng/mL

SMILES	tumor response observed (solid malignancies)	toxicity in mouse model of AML (mouse model of AML)	concentration of DHO remaining in the plasma (DHODH [1])	effect of combination on individual drug pharmacokinetic parameters (advanced malignancies; 650 mg/m^2 brequinar with 75 mg/m^2 cisplatin (Burris))	brequinar dose that can be administered with full dose cisplatin (advanced malignancies; brequinar days 1, 8 and 15 with 75 mg/m^2 cisplatin day 1, 28-day cycle (Burris)) [mg/m^2]	DHO plasma level threshold achieved (DHODH [2]; Example 9, first patient with AML)	time remained above DHO threshold (DHODH [2]; [5]) [h]	time to achieve DHO plasma level threshold (DHODH [2]; [5])	DHO plasma level threshold achieved (DHODH [2]; Example 10, second patient with AML)	time remained above DHO threshold (DHODH [2]; [6]) [h]	time to achieve DHO plasma level threshold (DHODH [2]; [6]) [h]	DHO plasma level threshold achieved (DHODH [2]; Example 11, patient with AML) [ng/mL]	time remained above DHO threshold (DHODH [2]; [7]) [h]	time to achieve DHO plasma level threshold (DHODH [2]; [7])	Dyspepsia: No. of Patients Experiencing the AE, Max Grade 1 [3]	clinical response ([4]; Example 9, first patient with AML, bone marrow blast count, extramedullary hematopoiesis, differentiation of peripheral blasts)	clinical response ([4]; Example 10, second patient with AML, peripheral blasts, absolute neutrophil count, differentiation of peripheral blasts)	clinical response ([4]; Example 11, patient with AML, trend towards differentiation of peripheral blasts)
Cc1c(-c2ccc(-c3ccccc3F)cc2)nc2ccc(F)cc2c1C(=O)O [Brequinar sodium]	One mixed response																	
Cc1c(-c2ccc(-c3ccccc3F)cc2)nc2ccc(F)cc2c1C(=O)O [brequinar, 6-fluoro-2-(2′-fluoro-1,1′ biphenyl-4-yl)-3-methyl-4-quinoline carboxylic acid]		weight loss, anemia, and thrombocytopenia	about 100 ng/mL	without significant modifications of individual drug pharmacokinetic parameters	650	≥ 1,600 ng/mL	84	less than 24 hours	≥ 2,900 ng/mL	84	< 24	≥ 133	84	less than 2 hours	6	positive response	positive response	positive response
